Results: patent US20220125897A1, “Antithrombin-III Treatment of Traumatic Brain Injury” (THE TRUSTEES OF THE UNIVERSITY OF PENNSYLVANIA, priority 2020, published 2022)

Experiments:
[1] = test system: CD1 mice, controlled cortical impact (CCI) severe TBI model; assay: Pial intravital microscopy: in vivo LEU/EC interactions; settings: pial penumbral microcirculation, 48 hours after CCI, doses 0.5 and 24 hours after CCI, ±SEM
Experimental: (§1) Procedures received approval from the University of Pennsylvania Institutional Animal Care and Use Committee. CD1 adult male mice (25-30 g) (Charles River Laboratories; Wilmington, Mass.) were acclimated in standard housing with ad libitum water and chow for 5 days before experiments and immediately after recovery from brain injury. Mice underwent controlled cortical impact (CCI) or sham craniotomy (SHAM) and then received one of three agents: 1) subcutaneous enoxaparin (ENX, 1.5 mg/kg) (Winthrop, Sanofi-Aventis; Bridgewater, N.J.); intravenous (femoral vein) pharmaceutical grade antithrombin-III (AT-III, 250 IU/kg, donated by Grifols S.A. (Durham, N.C.); or 3) an equal volume of IV normal saline (0.9% NS, Baxter; Deerfield, Ill.). Doses were administered 0.5 and 24 hours after the CCI (FIG. 1).
(§2) Seventy-one (71) mice were randomly assigned to one of six groups: 1) sham craniotomy and vehicle (VH, 0.9% normal saline, Baxter Healthcare Corporation; Deerfield, Ill.), (SHAM +VEH, n=9); 2) sham craniotomy and ENX (SHAM+ENX, n=8); 3) sham craniotomy and AT-III (SHAM+AT-III, n=9); 4) TBI and vehicle (CCI+VEH, n=19); TBI and ENX (CCI+ENX, n=13); and 6) TBI and AT-III (CCI+AT-III, n=13).
(§3) CCI was used to replicate TBI through a well-validated rodent model (16, 17). Briefly, on day 1, mice were anesthetized with intraperitoneal ketamine (Hospira; Lake Forest, Ill.), xylazine (Alcorn; Decatur, Ill.), and acepromazine (Boehringer Ingelheim; St. Joseph, Mo.) (KXA: 100, 10, 1 mg/kg, respectively) and place prone in a stereotactic device. After scalp exposure, a left-sided 4-mm craniotomy was created between bregma and lambda structures using a dental drill (Henry Schein; Melville, N.Y.) without violating the dura.
In vivo assessment of cerebral microcirculation using pial intravital microscopy was performed 48 hours after CCI as described previously, as this is the optimal time to observe peak leukocyte mobilization to the BBB penumbra after brain injury. Under KXA anesthesia, the right jugular vein was cannulated and a second 2.5 mm craniotomy was created immediately anterior to the first and covered with a 5 mm coverslip (Fisher Scientific; Waltham, Mass.). […]
Video data captured at 590 nm λ were imported into analysis software (NIS-Elements, Nikon Instruments; Melville, N.Y.) and LEU/EC interactions were counted by a blinded observer quantifying the following parameters: 1) LEU transit: mean number of labelled EU crossing a 100 μm long venular segment in 60 seconds; and 2) LEU adhesion: number of LEU stationary for at least 30 seconds during the recording period. Fluorescently labelled spherical cells measuring 7 to 12 μm were counted as LEU and interactions were reported as the number of cells/100 μm per minute (FIGS. 2A and 2B).

[2] = test system: CD1 mice, controlled cortical impact (CCI) severe TBI model; assay: Pial intravital microscopy: FITC-albumin leakage (microvascular permeability); format: in vivo; settings: for Cerebrovascular FITC-albumin leakage: 48 hours after CCI, doses 0.5 and 24 hours after CCI, ±SEM
Experimental: as §1, §2
as §3, with “dura. […]” for “dura.”
Footage captured under the 488 nm filter was evaluated for fluorescence intensity from FITC-labelled albumin measured in three distinct regions within the vessel (venular intensity) and outside the vessel walls (perivenular intensity) (FIGS. 3A and 3B). […]

[3] = test system: CD1 mice, controlled cortical impact (CCI) or sham craniotomy; assay: Brain water content (brain edema, wet-to-dry ratio); format: in vivo; settings: for Contralateral (%) Mean brain water content / Contralateral (%) Median brain water content / Ipsilateral (%) Mean brain water content / Ipsilateral (%) Median brain water content / Ratio (ipsi/contra) brain water content: 48 hours after CCI; for cerebral edema as compared to CCI+VEH: 48 hours, p>0.05
Experimental: as §1, §2, §3
Forty-eight hours after CCI, mice were sacrificed and excised brains were separated into injured (ipsilateral) and uninjured (contralateral) hemispheres. Wet weight (WW) was immediately assessed. Dry weight (DW) was assessed after 72 hours of dehydration at 70° C. Tissue water content was calculated using wet-to-dry ratios: % water content=100×(WW−DW)/WW.

[4] = Body weight loss after CCI; format: in vivo; settings: CCI mice, 48 hours after TBI; (W0h-W48h)/W0h×100%; ±SEM
Experimental: as §1, with “1). […]” for “1).”
(§4) Animal body weights (BW) were obtained just before (W0h) as well as 24 and 48 hours after CCI with animal weight loss expressed as a ratio: (W0h-W24h or W48h)/W0h×100%. Murine neurologic function was assessed by the modified Stroke Garcia Neurologic Test (GNT) assessing motor, sensory, reflex, and balance ability at 24 hours and 48 hours after TBI. […]

[5] = test system: CD1 mice, controlled cortical impact (CCI) severe TBI model; assay: Garcia Neurological Test (GNT); format: in vivo; settings: injured (CCI) mice, 24 or 48 hour post-TBI; maximum 18 points; ±SEM
Experimental: as §1, with “1). […]” for “1).”
as §4

[6] = test system: CD1 mice, controlled cortical impact (CCI) severe TBI model; assay: Morris water maze cued learning trials; format: in vivo
Experimental: (§5) Experimental procedures were conducted with the approval of the University of Pennsylvania Institutional Animal Care and Use Committee. CD1 adult male mice (25-30 g) (Charles River Laboratories, Wilmington, Mass.) were acclimatized in standard housing with water and chow ad libitum for 7 days before experiments after which they underwent sham craniotomy or craniotomy accompanied by controlled cortical impact (CCI), a well-validated severe TBI rodent model (Pascual et al., Am J Surg. 2013;206(6):840-846; Smith et al., J Neurotrauma. 1995; 12(2):169-178). Mice were anesthetized with intraperitoneal ketamine (Hospira, Lake Forest, Ill.), xylazine (Akorn, Decatur, Ill.), and acepromazine (Boehringer Ingelheim, St. Joseph, Mo.) (100, 10, 1 mg/kg, respectively) followed by subcutaneous bupivacaine (0.5 mg/mL) for longer-term analgesia. After creation of a left-sided, 4-mm craniotomy between bregma and lambda sutures, the exposed left parietotemporal cortex was injured via a controlled cortical impactor (AMS201; AmScien Instruments, Richmond, Va.). Controlled cortical impact settings (3-mm-diameter impactor tip, impact velocity of 6 m/s, and cortical deformation depth of 1 mm) replicated severe TBI (Smith et al., J Neurotrauma. 1995; 12(2):169-178). Rodents were then randomly allocated to receive either: (1) intravenous (via femoral vein) pharmaceutical grade AT-III (250 IU/kg, donated by Grifols S. A., Durham, N.C.) or (2) an equal volume of normal saline IV (0.9% NS; Baxter; Deerfield, Ill.) as a vehicle (VEH). Doses were administered 0.5 and 24 hours after CCI (FIG. 1) as determined by previous published reports and the manufacturer's recommendations (ElSaadani et al., J Trauma Acute Care Surg. 2021; 90(2):274-280; Uchiba et al., Thromb Res. 1998; 89(5):233-241; Uchiba et al., Semin Thromb Hemost. 1997; 23(6):583-590).
Fifteen mice (ElSaadani et al., J Trauma Acute Care Surg. 2021; 90(2):274-280) were randomized into three groups: (1) sham craniotomy (no CCI) plus VEH (SHAM, n=5), (2) TBI and VEH (CCI-VEH, n=5), and (3) TBI and AT-III (CCI−AT-III, n=5).
(§6) Learning and memory were evaluated in a Morris water maze (MWM) using a previously published protocol (Vorhees et al., Nat Protoc. 2006; 1(2):848-858; Jacovides et al., J Trauma Acute Care Surg. 2019; 87(3):552-558). After a recovery period of 6 days, each animal underwent daily. MWM trials of learning and memory for 9 consecutive days. […] All swimming trials were conducted and scored by the same operator, at the same time of day on all experiment days incorporating a computerized video-tracking and recording system over the pool to facilitate analysis (Ethovision; Noldus, Leesburg, Va.). […]

[7] = test system: CD1 mice, controlled cortical impact (CCI) severe TBI model; assay: Morris water maze spatial learning trials; format: in vivo; settings: ±SEM
Experimental: as §5, with “Controlled cortical impact settings (3-mm-diameter impactor tip, impact velocity of 6 m/s, and cortical deformation depth of 1 mm) replicated severe TBI (Smith et al., J Neurotrauma. 1995; 12(2):169-178). Rodents were then randomly allocated to receive either: (1) intravenous (via femoral vein) pharmaceutical grade AT-III (250 IU/kg, donated by Grifols S. A., Durham, N.C.) or (2) an equal volume of normal saline IV (0.9% NS; Baxter; Deerfield, Ill.) as a vehicle (VEH).” left out, “23(6):583-590). […]” for “23(6):583-590).”
as §6, with “87(3):552-558).” for “87(3):552-558). After a recovery period of 6 days, each animal underwent daily. MWM trials of learning and memory for 9 consecutive days.”
On postcraniotomy days 9 to 13, daily spatial learning trials evaluated the animals' ability to use environmental visual cues to locate and reach the platform. […]

[8] = test system: CD1 mice, controlled cortical impact (CCI) severe TBI model; assay: Morris water maze probe trials (long-term memory); format: in vivo; settings: days 10 to 14 post-TBI, CCI mice vs CCI-VEH
Experimental: Experimental procedures were conducted with the approval of the University of Pennsylvania Institutional Animal Care and Use Committee. CD1 adult male mice (25-30 g) (Charles River Laboratories, Wilmington, Mass.) were acclimatized in standard housing with water and chow ad libitum for 7 days before experiments after which they underwent sham craniotomy or craniotomy accompanied by controlled cortical impact (CCI), a well-validated severe TBI rodent model (Pascual et al., Am J Surg. 2013;206(6):840-846; Smith et al., J Neurotrauma. 1995; 12(2):169-178). […] Doses were administered 0.5 and 24 hours after CCI (FIG. 1) as determined by previous published reports and the manufacturer's recommendations (ElSaadani et al., J Trauma Acute Care Surg. 2021; 90(2):274-280; Uchiba et al., Thromb Res. 1998; 89(5):233-241; Uchiba et al., Semin Thromb Hemost. 1997; 23(6):583-590). […]
as §6, with “87(3):552-558).” for “87(3):552-558). After a recovery period of 6 days, each animal underwent daily. MWM trials of learning and memory for 9 consecutive days.”

| Substance | LEU adhesion [1] [LEUs/100 um/min] | LEU transit [1] [LEUs/100 um/min] | Cerebrovascular FITC-albumin leakage [2] [%] | decrease of macromolecular leakage (blood brain barrier integrity) ([2]; pial vessels, vs untreated injured) | Contralateral (%) Mean brain water content [3] [%] | Contralateral (%) Median brain water content [3] [%] | Ipsilateral (%) Mean brain water content [3] [%] | Ipsilateral (%) Median brain water content [3] [%] | Ratio (ipsi/contra) brain water content [3] | cerebral edema as compared to CCI+VEH [3] | Body weight loss [4] [%] | GNT score (stroke functional recovery score) [5] | time to reach the exposed platform, course over days ([6]; cued learning trials, compared with SHAM) | swimming velocity ([6]; cued learning trials, days 6-8 post-TBI, ±SEM) [cm/s] | mean time to reach the platform ([6]; cued learning trials, ±SEM) [s] | cumulative cued learning (overall mean group time to reach the platform) ([6]; throughout days 6 to 8 post-TBI, ±SEM) [s] | mean group cumulative swimming time ([7]; all 5 days of spatial learning trials, CCI mice) [s] | swimming time (time to reach platform) ([7]; day 13, last day of spatial learning trials, CCI mice) [s] | overall swim distance ([7]; spatial learning trials, days 9 to 13, CCI mice) [cm] | cognitive recovery: memory [8] |
| --- | --- | --- | --- | --- | --- | --- | --- | --- | --- | --- | --- | --- | --- | --- | --- | --- | --- | --- | --- | --- |
| antithrombin-III [AT-III] | 3.2±0.5 | 24.8±2.1 | 41.9±2.8 | more than 25% | 75.12 | 77.7 | 77.64 | 78.6192 | 1.033 | did not significantly reduce cerebral edema | 8.4±1 | 13.1±0.3 | eventually reached SHAM times by day 7 | 28.4 ± 1.1 | 20.1 ± 3.1 | 20.3 ± 2.1 | 17.6 ± 1.5 | 17.6 ± 3.9 | 306.9±27.9 | not memory |
| enoxaparin [ENX, reference compound] | 3.5±0.8 | 24.9±2.8 | 49.1±2.3 |  | 77.26 | 77.38 | 78.3674 | 79.03 | 1.014 | did not significantly reduce cerebral edema |  | 12.4±0.4 |  |  |  |  |  |  |  |  |
